Measured values as given in patent US8106055B2, “Substituted amide compounds” (Gruenenthal GmbH, priority 2007, dated 2012).

Biological target: T1, human μ opiate receptor (Homo sapiens, UniProt P35372)
T1 construct: purchased PerkinElmer Life Sciences, Zaventem, Belgium RB-HOM; host or cells: CHO-K1 cells (membrane preparation)
Assay: Affinity for the human μ opiate receptor ([3H]-naloxone displacement, CHO-K1 receptor membrane preparation, SPA)
Format: binding
Conditions: test concentration of 1 μM
Method in brief: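 At 1 μmol/l, compounds were scored for % displacement of 1 nmol/l [3H]-naloxone from CHO-K1-expressed human μ opiate receptor in a homogeneous SPA format (90 min, room temperature).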

T1 sequence (P35372 whole entry): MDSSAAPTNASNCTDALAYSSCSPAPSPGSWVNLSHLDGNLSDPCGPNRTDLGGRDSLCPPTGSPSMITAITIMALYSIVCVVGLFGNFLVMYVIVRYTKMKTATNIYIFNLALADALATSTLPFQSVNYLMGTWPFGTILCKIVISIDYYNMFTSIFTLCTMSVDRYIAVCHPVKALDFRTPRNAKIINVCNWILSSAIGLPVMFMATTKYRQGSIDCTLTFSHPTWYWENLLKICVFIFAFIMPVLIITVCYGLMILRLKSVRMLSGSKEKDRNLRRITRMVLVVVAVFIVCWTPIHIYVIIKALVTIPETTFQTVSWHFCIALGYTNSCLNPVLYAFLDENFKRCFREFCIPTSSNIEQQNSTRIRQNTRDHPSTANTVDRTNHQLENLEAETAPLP

| SMILES | μ (binding on the μ opioid receptor, % inhibition) |
| --- | --- |
| COc1cc(C)c(S(=O)(=O)N2CCC(OCC(=O)NCCC3CCC(C(c4ccc(F)cc4)N(C)C)CC3)C2)c(C)c1 (centres unmarked) [Example 509] | 43% |
| COc1ccc(S(=O)(=O)N2CCC(OCC(=O)NC3CCC(C(c4ccc(F)cc4)N(C)C)CC3)C2)cc1OC (centres unmarked) [Example 512] | 42% |
| Cc1ccc(S(=O)(=O)N(C)CCOCC(=O)NCCC2CCC(C(c3ccc(F)cc3)N(C)C)CC2)cc1 (centres unmarked) [Example 457] | 47% |
| COc1cc(C)c(S(=O)(=O)N2CCCC(OCC(=O)NCCC3CCC(C(c4ccc(F)cc4)N(C)C)CC3)C2)c(C)c1C (centres unmarked) [Example 468] | 53% |
| CN(C)C(CCc1ccccc1)C1CCC(CNC(=O)COCCN(C)S(=O)(=O)c2c(Cl)cc(Cl)cc2Cl)CC1 (centres unmarked) [Example 515] | 42% |
| CN(C)C(CCc1ccccc1)C1CCC(CNC(=O)COC2CCCCC2N(C)S(=O)(=O)c2ccc(Cl)c(Cl)c2)CC1 (centres unmarked) [Example 451] | 48% |
| COc1cc(C)c(S(=O)(=O)N2CCC(OCC(=O)NCCC3CCC(C(c4ccc(F)cc4)N(C)C)CC3)C2)c(C)c1C (centres unmarked) [Example 467] | 40% |
| Cc1ccc(S(=O)(=O)N(C)CCOCC(=O)NCC2CCC(C(CCc3ccccc3)N(C)C)CC2)cc1 (centres unmarked) [Example 452] | 46% |
| CN(C)C(c1ccc(Cl)cc1)C1CCC(CNC(=O)COC2CCN(S(=O)(=O)c3ccccc3)CC2)CC1 (centres unmarked) [Example 471] | 35% |
| COc1cc(C)c(S(=O)(=O)N2CCCC(OCC(=O)NCCC3CCC(C(c4ccc(Cl)cc4)N(C)C)CC3)C2)c(C)c1C (centres unmarked) [Example 485] | 46% |
| CN(C)C(CCc1ccccc1)C1CCC(CNC(=O)COCCN(Cc2ccccc2)S(=O)(=O)c2ccccc2)CC1 (centres unmarked) [Example 533] | 28% |
| COc1cc(C)c(S(=O)(=O)N2CCC(OCC(=O)NCC3CCC(C(CCc4ccccc4)N(C)C)CC3)C2)c(C)c1C (centres unmarked) [Example 503] | 37% |
| COc1ccc(S(=O)(=O)N(C)CCOCC(=O)NCCC2CCC(C(c3ccc(F)cc3)N(C)C)CC2)cc1OC (centres unmarked) [Example 484] | 35% |
| CN(C)C(c1ccc(F)cc1)C1CCC(CNC(=O)COC2CCN(S(=O)(=O)c3ccc(F)cc3)C2)CC1 (centres unmarked) [Example 522] | 35% |
| CN(C)C(c1ccc(F)cc1)C1CCC(CCNC(=O)COCCN(Cc2ccccc2)S(=O)(=O)c2ccccc2)CC1 (centres unmarked) [Example 489] | 35% |
| CN(C)C(c1cccc(F)c1)C1CCC(CNC(=O)COC2CCN(S(=O)(=O)c3ccccc3)CC2)CC1 (centres unmarked) [Example 477] | 51% |
| COc1cc(C)c(S(=O)(=O)N(CCOCC(=O)NC2CCC(C(c3ccc(F)cc3)N(C)C)CC2)Cc2ccccc2)c(C)c1 (centres unmarked) [Example 504] | 43% |
| COc1cc(C)c(S(=O)(=O)N(CCOCC(=O)NCC2CCC(C(c3ccc(F)cc3)N(C)C)CC2)Cc2ccccc2)c(C)c1 (centres unmarked) [Example 494] | 42% |
| COc1cc(C)c(S(=O)(=O)N2CCC(OCC(=O)NCCC3CCC(C(c4ccc(F)cc4)N(C)C)CC3)CC2)c(C)c1C (centres unmarked) [Example 480] | 38% |
| COc1ccc(S(=O)(=O)N2CCCCC2COCC(=O)NCCC2CCC(C(c3ccc(F)cc3)N(C)C)CC2)cc1OC (centres unmarked) [Example 462] | 51% |
| COc1cc(C)c(S(=O)(=O)N2CCC(OCC(=O)NCCC3CCC(C(c4ccc(Cl)cc4)N(C)C)CC3)CC2)c(C)c1C (centres unmarked) [Example 472] | 44% |
| CN(C)C(c1ccc(Cl)cc1)C1CCC(CCNC(=O)COCCC2CCN(S(=O)(=O)c3ccccc3)CC2)CC1 (centres unmarked) [Example 531] | 23% |
| COc1cc(C)c(S(=O)(=O)N2CCC(CCOCC(=O)NCC3CCC(C(c4ccc(Cl)cc4)N(C)C)CC3)CC2)c(C)c1C (centres unmarked) [Example 499] | 37% |
